Laboratory results taken from PubChem BioAssay (NCI).
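48-hour exposure; five concentrations; linearly interpolated endpoints. GI50 = concentration required for 50% inhibition of growth. TGI: total growth inhibition.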

Key:
Assay in all cases: growth of human tumour cells (NCI), 48 h
[1] = test system: 786-0 renal
[2] = test system: A549 NSCLC
[3] = test system: ACHN renal
[4] = test system: BT-549 breast
[5] = test system: CAKI-1 renal
[6] = test system: CCRF-CEM leukemia
[7] = test system: COLO 205 colon
[8] = test system: DU-145 prostate
[9] = test system: HCT-116 colon
[10] = test system: HCT-15 colon
[11] = test system: HL-60(TB) leukemia
[12] = test system: HOP-62 NSCLC
[13] = test system: HOP-92 NSCLC
[14] = test system: HT29 colon
[15] = test system: IGROV1 ovarian
[16] = test system: K-562 leukemia
[17] = test system: KM12 colon
[18] = test system: LOX IMVI melanoma
[19] = test system: M14 melanoma
[20] = test system: MALME-3M melanoma
[21] = test system: MCF7 breast
[22] = test system: MDA-MB-231 breast
[23] = test system: MDA-MB-435
[24] = test system: MOLT-4 leukemia
[25] = test system: NCI-H23 lung
[26] = test system: NCI-H460 lung
[27] = test system: NCI-H522 lung
[28] = test system: NCI/ADR-RES ovarian
[29] = test system: OVCAR-3 ovarian
[30] = test system: OVCAR-4 ovarian
[31] = test system: OVCAR-8 ovarian
[32] = test system: PC-3 prostate
[33] = test system: RPMI-8226 leukemia
[34] = test system: RXF 393 renal
[35] = test system: SF-268 CNS
[36] = test system: SF-295 CNS
[37] = test system: SK-MEL-2 melanoma
[38] = test system: SK-MEL-28 melanoma
[39] = test system: SK-MEL-5 melanoma
[40] = test system: SK-OV-3 ovarian
[41] = test system: SN12C renal
[42] = test system: SNB-19 CNS
[43] = test system: SNB-75 CNS
[44] = test system: SR leukemia
[45] = test system: SW-620 colon
[46] = test system: T-47D breast
[47] = test system: TK-10 renal
[48] = test system: U251 CNS
[49] = test system: UACC-257 melanoma
[50] = test system: UACC-62 melanoma
[51] = test system: UO-31 renal
[52] = test system: EKVX NSCLC
[53] = test system: HCC-2998 colon
[54] = test system: HS 578T breast
[55] = test system: OVCAR-5 ovarian
[56] = test system: SF-539 CNS

N#C/C(=C/N1CCN(C(=O)c2ccco2)C1=S)C(=O)Nc1ccc(Cl)cc1
GI50 [1]: 17.4 µM
TGI [1]: > 50 µM
GI50 [2]: 25.8 µM
TGI [2]: > 50 µM
GI50 [3]: 15.3 µM
TGI [3]: 42.2 µM
GI50 [4]: 8.63 µM
TGI [4]: 21.9 µM
GI50 [5]: 13.2 µM
TGI [5]: > 50 µM
GI50 [6]: 22.5 µM
TGI [6]: > 50 µM
GI50 [7]: 25.6 µM
TGI [7]: > 50 µM
GI50 [8]: 15.9 µM
TGI [8]: > 50 µM
GI50 [9]: 15.2 µM
TGI [9]: > 50 µM
GI50 [10]: 21.3 µM
TGI [10]: > 50 µM
GI50 [11]: 10.5 µM
TGI [11]: 28.7 µM
GI50 [12]: 25.7 µM
TGI [12]: > 50 µM
GI50 [13]: 21.5 µM
TGI [13]: > 50 µM
GI50 [14]: 21.4 µM
TGI [14]: > 50 µM
GI50 [15]: 25.3 µM
TGI [15]: > 50 µM
GI50 [16]: 16.1 µM
TGI [16]: > 50 µM
GI50 [17]: 16.3 µM
TGI [17]: > 50 µM
GI50 [18]: 16.7 µM
TGI [18]: > 50 µM
GI50 [19]: 14.2 µM
TGI [19]: > 50 µM
GI50 [20]: 21.4 µM
TGI [20]: > 50 µM
GI50 [21]: 21 µM
TGI [21]: > 50 µM
GI50 [22]: 18.4 µM
TGI [22]: > 50 µM
GI50 [23]: 15.2 µM
TGI [23]: > 50 µM
GI50 [24]: 17.8 µM
TGI [24]: > 50 µM
GI50 [25]: 12.3 µM
TGI [25]: 33.5 µM
GI50 [26]: 19.9 µM
TGI [26]: > 50 µM
GI50 [27]: 16.7 µM
TGI [27]: 30.2 µM
GI50 [28]: 28.1 µM
TGI [28]: > 50 µM
GI50 [29]: 15.5 µM
TGI [29]: > 50 µM
GI50 [30]: 25.2 µM
TGI [30]: > 50 µM
GI50 [31]: 20.6 µM
TGI [31]: > 50 µM
GI50 [32]: 18.9 µM
TGI [32]: > 50 µM
GI50 [33]: 10.5 µM
TGI [33]: 32.2 µM
GI50 [34]: 13.1 µM
TGI [34]: 44.9 µM
GI50 [35]: 17.8 µM
TGI [35]: 41 µM
GI50 [36]: 20.2 µM
TGI [36]: > 50 µM
GI50 [37]: 16.7 µM
TGI [37]: 39.7 µM
GI50 [38]: 18.7 µM
TGI [38]: > 50 µM
GI50 [39]: 11.2 µM
TGI [39]: 24.7 µM
GI50 [40]: 41.2 µM
TGI [40]: > 50 µM
GI50 [41]: 11.8 µM
TGI [41]: 37.2 µM
GI50 [42]: 27.6 µM
TGI [42]: > 50 µM
GI50 [43]: > 50 µM
TGI [43]: > 50 µM
GI50 [44]: 1560 nM
TGI [44]: 21.3 µM
GI50 [45]: 17.3 µM
TGI [45]: > 50 µM
GI50 [46]: > 50 µM
TGI [46]: > 50 µM
GI50 [47]: 19.4 µM
TGI [47]: > 50 µM
GI50 [48]: 17.3 µM
TGI [48]: > 50 µM
GI50 [49]: 16.5 µM
TGI [49]: 48.4 µM
GI50 [50]: 16.9 µM
TGI [50]: > 50 µM
GI50 [51]: 12 µM
TGI [51]: 26.6 µM

CC12OC(C(=O)C13CC3)C1C(=O)c3c(O)ccc(O)c3C(=O)C12 (stereo not drawn)
GI50 [1]: 2.19 µM
TGI [1]: 6.56 µM
GI50 [2]: 17.5 µM
TGI [2]: 39.2 µM
GI50 [3]: 3.54 µM
TGI [3]: 15.2 µM
GI50 [4]: 22.1 µM
TGI [4]: 51.8 µM
GI50 [5]: 4.68 µM
TGI [5]: 17.9 µM
GI50 [7]: 15.4 µM
TGI [7]: 35.8 µM
GI50 [52]: 12.1 µM
TGI [52]: 48.3 µM
GI50 [53]: 11.9 µM
TGI [53]: 27.4 µM
GI50 [9]: 14.3 µM
TGI [9]: 28.2 µM
GI50 [10]: 11 µM
TGI [10]: 24.7 µM
GI50 [12]: 21.3 µM
TGI [12]: 60.5 µM
GI50 [13]: 11.9 µM
TGI [13]: 41 µM
GI50 [54]: 16.3 µM
TGI [54]: 46.2 µM
GI50 [14]: 16.2 µM
TGI [14]: 38.9 µM
GI50 [15]: 13.4 µM
TGI [15]: 29.7 µM
GI50 [16]: 13.8 µM
TGI [16]: 34.6 µM
GI50 [17]: 23.5 µM
TGI [17]: 90.1 µM
GI50 [19]: 15.3 µM
TGI [19]: 30.2 µM
GI50 [20]: 13.7 µM
TGI [20]: 30.5 µM
GI50 [21]: 11.2 µM
TGI [21]: 26.3 µM
GI50 [22]: 24.6 µM
TGI [22]: 46.6 µM
GI50 [23]: 18.4 µM
TGI [23]: 36.5 µM
GI50 [24]: 2.35 µM
TGI [24]: 10.2 µM
GI50 [25]: 14.4 µM
TGI [25]: 31.1 µM
GI50 [26]: 31.5 µM
TGI [26]: > 100 µM
GI50 [27]: 16.1 µM
TGI [27]: 32 µM
GI50 [28]: 20.1 µM
TGI [28]: 66.8 µM
GI50 [55]: 19.4 µM
TGI [55]: 43.8 µM
GI50 [31]: 15.6 µM
TGI [31]: 36.1 µM
GI50 [32]: 16.5 µM
TGI [32]: 37.1 µM
GI50 [34]: 16.7 µM
TGI [34]: 37.6 µM
GI50 [35]: 15.1 µM
TGI [35]: 45.8 µM
GI50 [56]: 19.4 µM
TGI [56]: 49.9 µM
GI50 [37]: 33.9 µM
TGI [37]: > 100 µM
GI50 [38]: 24.6 µM
TGI [38]: 78.7 µM
GI50 [40]: 24.6 µM
TGI [40]: 78 µM
GI50 [42]: 28.9 µM
TGI [42]: > 100 µM
GI50 [43]: 20.6 µM
TGI [43]: 40.8 µM
GI50 [46]: 11.6 µM
TGI [46]: 32 µM
GI50 [47]: 15.6 µM
TGI [47]: 35.2 µM
GI50 [48]: 14.7 µM
TGI [48]: 31.1 µM
GI50 [49]: 13.9 µM
TGI [49]: 29.1 µM
GI50 [51]: 22.8 µM
TGI [51]: 55.6 µM
